Entries after “also recorded” stand apart in the source; their conditions may differ.
Legend:
metalloprotease 24.15 = experiment: Metalloprotease 24.15 brain levels; format: in vivo, mice; conditions: in response to Aβ injections
Experimental: (§1) Preparation of tissue: For combined Western blot analyses and immunohistochemistry, mice were deeply anesthetized and were perfused transcardially using ice-cold PBS (pH 7.4). Frontal cortices of both hemispheres were homogenized in lysis buffer containing 1% Triton X-100, 10 mM Tris, 250 mM sucrose, and 1× complete proteinase inhibitor cocktail, pH=8 (Roche, Switzerland). The remaining brain tissue was fixed over night in 4% paraformaldehyde solution at 4° C. and washed several times in PBS and embedded in paraffin for immuno-histochemistry. For combined immunocytochemistry and Aβ-ELISA, mice were perfused with 4% paraformaldehyde and postfixed in the same solution over night. […]
(§2) Western-blot analysis: Protein concentration of brain extracts were determined with the Bredford protein assay and equal amounts of protein (60 μg) were loaded to each lane of 8% acrylamid gels in Laemmli buffer. […]
(§3) Role of other Aβ degrading enzymes: To determine whether other Aβ-degrading proteases were involved in preventing amyloid formation in the above described mice, brain tissue levels of insulin-degrading enzyme (IDE), a 100 kD Zn-metallo-proteinase that is a major Aβ-degrading enzyme in tissue culture (Qiu W. Q. et al., J. Biol. Chem. 273, 32730-32738, 1998; Vekrellis K. et al., J. Neurosci., 20, 1657-1665, 2000) were analysed by immunohistochemistry and Western blotting. […]

PDAPP transgenic mouse = conditions: cited from earlier work
NEP [1] = experiment: Western blot and densitometry of NEP in brain extracts after Aβ42 injection; format: in vivo; conditions: as early as one week after Aβ42 injection; SwAPP and wild-type mice; vs uninjected or PBS-injected
Experimental: Actin was used to control for equal loading (a). […] The intensity of each NEP and actin bands was measured using the NIH-Image software. […] Data represent means of each group+SEM * p≦0.05, ** p≦0.01, Mann-Whitney U test. n=3 for each group.
All mice used in this study were the progeny of a single SwAPP male, crossbred to wild-type littermates. The colony was housed under a light cycle of 12 hours with dry food and water ad libitum. […] After the injection, the needle was left in place for 1 more minute, and then was slowly withdrawn over a period of 1 minute.
Western-blot analysis: Protein concentration of brain extracts were determined with the Bredford protein assay and equal amounts of protein (60 μg) were loaded to each lane of 8% acrylamid gels in Laemmli buffer. After electrophoresis proteins were blotted on nitrocellulose membranes (Amersham). Membranes were probed for NEP using the monoclonal antibody 56C6 at a dilution of 1:50. […]

APP = APP levels by Western blots of protein extracts; format: in vivo; conditions: Aβ42- or vehicle treated, or untreated transgenic mice
Experimental: Western-blot analysis: Protein concentration of brain extracts were determined with the Bredford protein assay and equal amounts of protein (60 μg) were loaded to each lane of 8% acrylamid gels in Laemmli buffer. After electrophoresis proteins were blotted on nitrocellulose membranes (Amersham). Membranes were probed for NEP using the monoclonal antibody 56C6 at a dilution of 1:50. Blots were stripped in a buffer containing 2% SDS, 62.5 mM Tris (pH 6.8) and 100 mM β-mercaptoethanol at 50° C. for 30 minutes. After stripping the membrane were probed sequentially with anti-Alzheimer precursor protein A4 antibody (clone 22C11, 1:1000), IDE-1 (1:800), ACE (1:200), and the polyclonal antibody to 24.15 protein (1:600). Finally, staining for actin (1:1000) was performed as a loading control. […]
(§4) To be sure that no amyloid plaques were missed in the mice, every 50th coronal section (250 μm apart) of all mice was stained, beginning with a random section of the olfactory bulbs. […] Existing plaques in 3 representative sections of each mouse were counted. […] To determine whether the reduced amyloid pathology was associated with reduced concentrations of transgenic Aβ, human Aβ was measured by a sandwich ELISA that specifically recognized intact human Aβ (Nitsch, R. M. et al., Ann. Neurol. in Press). As expected, no human Aβ was detected by ELISA in wild-type mice.

[2] = system: insulin-degrading enzyme (IDE); experiment: IDE brain tissue levels by immunohistochemistry and Western blotting; format: in vivo, mice; conditions: in response to Aβ42 injections
Experimental: as §1, §2, §3

transgenic SwAPP mice [3] = experiment: GFAP staining of reactive astrocytes (astrogliosis); format: in vivo
Experimental: Preparation of tissue: For combined Western blot analyses and immunohistochemistry, mice were deeply anesthetized and were perfused transcardially using ice-cold PBS (pH 7.4). Frontal cortices of both hemispheres were homogenized in lysis buffer containing 1% Triton X-100, 10 mM Tris, 250 mM sucrose, and 1× complete proteinase inhibitor cocktail, pH=8 (Roche, Switzerland). The remaining brain tissue was fixed over night in 4% paraformaldehyde solution at 4° C. and washed several times in PBS and embedded in paraffin for immuno-histochemistry. For combined immunocytochemistry and Aβ-ELISA, mice were perfused with 4% paraformaldehyde and postfixed in the same solution over night. The caudal parts of the brains reaching from intraaural 1 to intraaural −2 (Franklin, K. B. J, Paxinos, G. Academic Press, 1997) were dissected and prepared for Aβ ELISA. The remaining brain tissue was embedded in paraffin and then processed for immunohistochemistry. Five μm thick paraffin sections were probed with antibodies against NEP, IDE (Insulin degrading enzyme), ACE (Angiotensin converting enzyme), endopeptidase 24.15 protein, and GFAP (glial fibrillary protein) according to providers' protocols and counterstained with nuclear fast red (Fluka, Switzerland).
Prevention of amyloid formation was accompanied by reduced reactive astrocytosis: Because brain amyloidosis in SwAPP mice is accompanied by reactive astrocytosis, GFAP-reactive astrocytes were analysed in response to the Aβ42-injection protocol (FIG. 6 a-c). […] Similar activation of astrocytes in brain regions unaffected by amyloid plaque formation is a well established finding in transgenic mice that overexpress disease-causing APP mutants (Schenk D. et al., Nature 400, 173-177, 1999). It may be explained by high sensitivity of hippocampal astrocytes to unknown toxic activities related to the expression of the SwAPP transgene; these may well be independent of amyloid plaque formation.

NEP [4] = experiment: NEP immunohistochemistry of brain sections after intracranial Aβ42 injection; format: in vivo; conditions: single intracranial injection of 1 μl aggregated Aβ42 (350 μM); SwAPP and wild-type mice; 11 and 20 weeks after injection; vs PBS
Experimental: (§5) Animals: Transgenic mice expressing the AD-causing Swedish double mutant of the human APP gene were generated and bred as described previously (Hsiao K. K. et al., Neuron 15, 1203-1218, 1995; Hsiao K. et al., Science 274, 99-102, 1996). All mice used in this study were the progeny of a single SwAPP male, crossbred to wild-type littermates. The colony was housed under a light cycle of 12 hours with dry food and water ad libitum. The presence of the transgene was determined by PCR on genomic DNA isolated from tail biopsies using specific primers GTGGATAACCCCTCCCCCAGCCTAGACCA and CTGACCACTCGACCAGGTTCTGGGT to the transgene. […] After the injection, the needle was left in place for 1 more minute, and then was slowly withdrawn over a period of 1 minute.
Preparation of tissue: For combined Western blot analyses and immunohistochemistry, mice were deeply anesthetized and were perfused transcardially using ice-cold PBS (pH 7.4). […]
In contrast, in SwAPP mice as well as in wild-type littermates injected with PBS vehicle alone, neuronal NEP staining was weak and diffuse (FIG. 2 a-c, g-i). […] To confirm this finding, we next analysed brain proteins prepared from Aβ42-injected mice extracts by Western blotting.

transgenic SwAPP mice [5] = experiment: Brain amyloid plaque staining and counts (thioflavin S, 4G8) in SwAPP mice; format: in vivo
Experimental: as §5, with “minute. […]” for “minute.”
as §4

human Aβ = experiment: Aβ sandwich ELISA on formic acid extracted brain tissue; format: in vivo; conditions: SwAPP mice, 20 weeks after injection, n=4; vs untreated SwAPP littermates; p≦0.05
Experimental: as §1
Aβ-ELISA: For quantitation of Aβ content in mouse brain, protein extracts of fixed brain tissue reaching from the stereotaxic coordinates intraaural 1 to intraaural −2 were prepared. […] 150 μl diluted samples or standards (Aβ40 Bachem) were incubated overnight, washed, and detected with biotinylated monoclonal mouse antibody 6H1 directed against amino acids 1-17 of human Aβ (Evotec Neurosciences GmbH) incubated at a concentration of 1 μg/ml in blocking buffer for 2 hours at 37° C., and visualised with a peroxidase reaction using tetramethylbenzidine as substrate, and detection at 450 nm. […]

[6] = system: angiotensin converting enzyme (ACE); experiment: ACE brain tissue levels; format: in vivo; conditions: treated vs untreated mice, any examined time point after Aβ42 injection
Experimental: as §1, §2, §3

NL-1 (neprilysin like 1) = biological target: T1, NL-1 (neprilysin like 1) (Mus musculus, UniProt Q9JLI3); conditions: cited from earlier work
T1 sequence (Q9JLI3 63-765): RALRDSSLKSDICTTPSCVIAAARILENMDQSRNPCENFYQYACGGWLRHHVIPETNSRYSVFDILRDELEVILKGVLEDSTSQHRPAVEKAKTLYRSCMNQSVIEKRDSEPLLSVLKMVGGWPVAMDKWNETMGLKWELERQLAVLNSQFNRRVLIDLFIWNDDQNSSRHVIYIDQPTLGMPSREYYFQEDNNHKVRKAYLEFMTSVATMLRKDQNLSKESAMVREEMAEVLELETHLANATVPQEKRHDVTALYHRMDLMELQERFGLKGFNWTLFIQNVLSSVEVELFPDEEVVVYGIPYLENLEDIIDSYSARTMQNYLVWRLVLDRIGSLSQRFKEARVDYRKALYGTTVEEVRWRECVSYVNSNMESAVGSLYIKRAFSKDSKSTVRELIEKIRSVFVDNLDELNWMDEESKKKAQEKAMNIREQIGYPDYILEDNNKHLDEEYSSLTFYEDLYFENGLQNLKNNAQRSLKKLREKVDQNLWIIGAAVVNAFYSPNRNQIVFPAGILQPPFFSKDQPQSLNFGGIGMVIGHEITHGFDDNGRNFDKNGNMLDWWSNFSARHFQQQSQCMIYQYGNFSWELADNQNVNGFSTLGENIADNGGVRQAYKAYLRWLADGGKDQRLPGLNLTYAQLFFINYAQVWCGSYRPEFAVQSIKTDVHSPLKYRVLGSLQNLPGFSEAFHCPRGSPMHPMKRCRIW

| Compound | metalloprotease 24.15 levels (metalloprotease 24.15) | β-amyloid-plaque formation, neuritic dystrophy and astrogliosis (PDAPP transgenic mouse; immunisation of young animals (6 weeks of age)) | extent and progression of AD-like neuropathologies (PDAPP transgenic mouse; treatment of older animals (11 months)) | NEP protein levels in brain extracts (Western blot) (NEP [1]) | APP levels (APP) | tissue levels of IDE [2] | GFAP-positive astrocytes in hippocampi (transgenic SwAPP mice [3]; Aβ42-treated SwAPP mice) | amyloid plaque-associated clusters of GFAP-positive cells (transgenic SwAPP mice [3]; SwAPP mice after Aβ42 injections) | GFAP staining of reactive astrocytes in cerebral cortices (transgenic SwAPP mice [3]; SwAPP mice, 20 weeks after injection, vs untreated SwAPP littermates) | neuronal NEP immunoreactivity (NEP [4]) | thioflavin S- or 4G8-positive amyloid plaques (transgenic SwAPP mice [5]; SwAPP mice at 31 weeks of age, 20 weeks after single injection (4/4), vs untreated SwAPP mice) | plaque counts of 4G8 stained amyloid plaques (transgenic SwAPP mice [5]; SwAPP mice, 20 weeks after injection, vs untreated littermates, p≦0.05) | brain Aβ levels (ELISA, formic acid extracted total Aβ) (human Aβ) | ACE levels [6] | inhibition of NL-1 (NL-1 (neprilysin like 1)) |
| --- | --- | --- | --- | --- | --- | --- | --- | --- | --- | --- | --- | --- | --- | --- | --- |
| Aβ42: Fibrillar aggregated synthetic Aβ42 prepared by resuspending lyophilized Aβ42 (Bachem) in PBS, pH 7.4 by shaking for 48 hours at 37° C. | unchanged | essentially prevented | markedly reduced | significant increase; also recorded: significantly higher | no difference | no differences | abundant | completely absent | significantly lower | increased | significant reduction; also recorded: completely free | significantly reduced; also recorded: marked significant decrease | significantly reduced; also recorded: untreated control SwAPP mice (n=4) were significantly higher than in Aβ42-treated SwAPP mice | did not differ |  |
| CC(C)C[C@H](NP(=O)(O)O[C@@H]1O[C@@H](C)[C@H](O)[C@@H](O)[C@H]1O)C(=O)N[C@@H](Cc1c[nH]c2ccccc12)C(=O)O [phosphoramidon] |  |  |  |  |  |  |  |  |  |  |  |  |  |  | efficiently inhibited |
